Measured values from patent US6143875A, “Antibody to DNase involved in apoptosis” (priority 1994, dated 2000).
“And” between values parts separate entries of the source, which are not always exact repeats. Equal entries are not always repeated. One block for each molecule: values may come before it.

Experiments:
[1] = target: T1, DNase γ (Rattus norvegicus, UniProt O89107); experiment: DNase (endonuclease) activity assay, HeLa S3 nuclei as substrate (Assay 1); format: biochemical; settings: for optimal concentration for full DNase γ activity: both Ca2+ and Mg2+ required, other cation at 3 mM; for DNase activity (%) γ: optimal mixture =100%
T1 sequence (O89107 26-310): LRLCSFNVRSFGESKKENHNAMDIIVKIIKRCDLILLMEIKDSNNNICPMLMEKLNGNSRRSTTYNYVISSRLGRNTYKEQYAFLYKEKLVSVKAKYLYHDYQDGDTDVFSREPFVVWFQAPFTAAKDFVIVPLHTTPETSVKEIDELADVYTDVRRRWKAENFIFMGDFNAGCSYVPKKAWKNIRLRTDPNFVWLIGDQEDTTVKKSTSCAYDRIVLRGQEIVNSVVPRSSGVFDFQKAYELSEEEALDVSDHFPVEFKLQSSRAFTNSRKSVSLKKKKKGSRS
Description: (§1) The activity of endonuclease (DNase) can be assayed by observing fragmentation of chromosomal DNA in the nucleus on 2% agarose gel electrophoresis using, as a substrate, the nucleus of HeLa S3 cell (human cervical carcinoma epithelial cell) which is completely free of endogenous endonuclease [Biochem. Biophys. Res. Commun. 194, (1993), pp, 30-31].
(§2) To be specific, a reaction mixture (30 μl) of HeLa S3 cells (1.67×10^7 /ml) and DNase fraction is incubated at 37° C. for 60 minutes and the reaction is stopped by cooling same on ice. Then, the reaction mixture after reaction is centrifuged at 20,000× g for 20 seconds, and the precipitated nuclei are dissolved in a lysis buffer [50 mM Tris-HCl (pH 7.8), 10 mM EDTA, 0.5% w/v N-lauronyl sarcosylate Na]. The obtained DNA is thoroughly treated with 0.5 mg/ml RNase A for 20 minutes and with 0.5 mg/ml proteinase K for 30 minutes, after which they are subjected to 2% agarose gel electrophoresis. […] The ratio of fragmentation (percent fragmentation) is calculated from the density of DNA fragments with a molecular weight of less than 5 kb.
(§3) As a suitable reaction solution for the assay of the activity of DNases α and β, 50 mM MES-NaOH (-pH 5.6) buffer containing 3 mM MgCl2, 1 mM 2-mercaptoethanol and 0.1 mM PMSF is used. As a suitable reaction solution for the assay of the activity of DNase γ, 50 mM MOPS-NaOH (pH 7.2) buffer containing 3 mM CaCl2, 3 mM MgCl2, 1 mM 2-mercaptoethanol and 0.1 mM PMSF is used.
(§4) Effects of divalent cations on the activity of DNase α, […] were examined. To be specific, the effect of Mg^2+ was examined by assaying the activity of purified DNases α, β and γ in the presence of 3 mM CaCl2 with increasing concentrations of MgCl2. The effect of Ca^2+ was examined by assaying the activity of DNases α, β and γ purified in the same manner, with increasing concentrations of CaCl2 in the presence of 3 mM MgCl2. The effect of Zn^2+ was examined in 50 mM […] (pH 5.6) buffer containing 3 mM MgCl2, 1 mM 2-mercaptoethanol and 0.1 mM PMSF with increasing concentrations of ZnCl2 with regard to DNases α and β, and it was examined in 50 mM MOPS-NaOH (pH 7.2) buffer containing 3 mM CaCl2, 3 mM MgCl2, 1 mM 2-mercaptoethanol and 0.1 mM PMSF, with increasing concentrations of ZnCl2 with regard to DNase γ. The results are shown in FIG. 8, FIG. 8B, and FIG. 8C. As a result, DNase γ required both Ca^2+ and Mg^2+ for full activity, wherein the optimal concentration of the both was 1-3 mM (FIG. 8A and FIG. 8B). DNase γ was sensitive to Zn^2+, and its activity was inhibited by 50% by Zn^2+ with a low concentration of 40 μM (FIG. 8c).
(§5) The activity of DNases α and β was calculated relative to the endonuclease activity which was assayed using HeLa S3 cell nuclear chromatin DNA as a substrate and 50 mM MES-NaOH (pH 5.6) buffer containing 3 mM MgCl2, 1 mM 2-mercaptoethanol and 0.1 mM PMSF as a reaction solution, and taken as 100%; and the activity of DNase γ was calculated relative to the endonuclease activity which was assayed using HeLa S3 cell nuclear chromatin DNA as a substrate and 50 mM MOPS-NaOH (pH 7.2) buffer containing 3 mM CaCl2, 3 mM MgCl2, 1 mM 2-mercaptoethanol and 0.1 mM PMSF as a reaction solution, and taken as 100%. In the Table, "-" means deletion of said components from the above-mentioned optimal reaction mixture and "+" means addition of said components to the above-mentioned optimal reaction mixture.

[2] = system: DNase α; experiment: as above; format: biochemical, rat; settings: for effect of divalent cation on DNase α activity: increasing concentrations of MgCl2 or CaCl2
Description: as §1, §2, §3, §4, §5

[3] = system: DNase β; experiment: as above; format: biochemical, rat; settings: for effect of divalent cation on DNase β activity: increasing concentrations of MgCl2 or CaCl2
Description: as §1, §2, §3, §4, §5

[4] = system: HeLa S3 cell nuclear chromatin DNA; experiment: Endonuclease activity of purified DNases in HeLa S3 nuclear assay system; format: biochemical, human
Description: as §1, §2, §3
The optimal pH for the activity of DNases α, β and γ was determined by assaying HeLa S3 nuclei in various buffers from acidic to basic (Reference Example 3, Assay 1) and calculating from the percentage of DNA fragmentation.
as §5

[5] = system: DNA derived from HeLa S3 cell nuclei; experiment: End labeling method, DNA cleavage mode; format: biochemical, human; settings: 3' and 5' end labeling with/without alkaline phosphatase
[6] = +3 mM added to optimal reaction mixture (=100%)
[7] = +Zn2+ 0.1 mM, optimal mixture =100%
[8] = increasing ZnCl2 in pH 5.6 buffer, 3 mM MgCl2, read-out: Inhibition by Zn2+: IC50
[9] = up to the concentration of 1 mM
[10] = +aurintricarboxylate 30 μM, optimal mixture =100%
[11] = +aurintricarboxylate 100 μM, optimal mixture =100%
[12] = +Mn2+ 3 mM, -Mg2+/Ca2+, optimal mixture =100%

optimal concentration for full DNase γ activity [1]: 1 to 3 mM
DNase activity (%) α [2, 6]: 101%
effect of divalent cation on DNase α activity [2]: not influenced
DNase activity (%) β [3, 6]: 104%
effect of divalent cation on DNase β activity [3]: not influenced
Molecule: [Ca+2].[Cl-].[Cl-] [Ca^2+]

optimal concentration for full DNase γ activity [1]: 1 to 3 mM
DNase activity (%) α [2, 6]: 104%
effect of divalent cation on DNase α activity [2]: not influenced
DNase activity (%) β [3, 6]: 102%
effect of divalent cation on DNase β activity [3]: not influenced
Molecule: [Cl-].[Cl-].[Mg+2] [Mg^2+]

DNase activity (%) γ ([1]; +Zn2+ 0.1 mM): 21%
IC50 ([1]; increasing ZnCl2 in 50 mM MOPS-NaOH (pH 7.2), 3 mM CaCl2, 3 mM MgCl2, read-out: Inhibition by Zn2+: IC50): 40 µM
DNase activity (%) α [2, 7]: 90%
IC50 [2, 8]: ≥ 1000 µM
effect of Zn2+ on DNase α activity [2, 9]: not influenced
DNase activity (%) β [3, 7]: 93%
IC50 [3, 8]: ≥ 1000 µM
effect of Zn2+ on DNase β activity [3, 9]: not influenced
Molecule: [Cl-].[Cl-].[Zn+2] [Zn^2+]

DNase activity (%) γ ([1]; +aurintricarboxylate 30 μM): 29%
DNase activity (%) γ ([1]; +aurintricarboxylate 100 μM): 0%
inhibition of DNase γ activity ([1]; at a concentration of 100 μM): completely inhibited
inhibition of DNase α activity [2]: completely inhibited
DNase activity (%) α [2, 10]: 32%
DNase activity (%) α [2, 11]: 0%
DNase activity (%) β [3, 10]: 0%
DNase activity (%) β [3, 11]: 0%
inhibition of DNase β activity ([3]; at a concentration of 100 μM): completely inhibited
Molecule: O=C(O)C1=CC(=C(c2ccc(O)c(C(=O)O)c2)c2ccc(O)c(C(=O)O)c2)C=CC1=O [aurintricarboxylic acid]

DNase activity (%) γ ([1]; +Mn2+ 3 mM, -Mg2+/Ca2+): 45%
DNase activity (%) α [2, 12]: 104%
DNase activity (%) β [3, 12]: 103%
Molecule: [Mn+2] [Mn^2+]

B1: DNase γ: novel endonuclease of rat cell nuclei cleaving linker sites of chromatin DNA; SEQ ID NO: 1, amino acids 26-310 (protein)
chain: LRLCSFNVRSFGESKKENHNAMDIIVKIIKRCDLILLMEIKDSNNNICPMLMEKLNGNSRRSTTYNYVISSRLGRNTYKEQYAFLYKEKLVSVKAKYLYHDYQDGDTDVFSREPFVVWFQAPFTAAKDFVIVPLHTTPETSVKEIDELADVYTDVRRRWKAEIFIFMGDFNAGCSYVPKKAWKNIRLRTDPNFVWLIGDQEDTTVKKSTSCAYDRIVVRGQEIVNSVVPRSSGVFDFQKAYELSEEEALDVSDHFPVEFKLQSSRAFTNSRKSVSLKKKKKGSRS
Divalent cation dependency [4]: Ca^2+ /Mg^2+, Mn^2+ dependent
DNase activity (%) ([4]; -2-mercaptoethanol (deleted from optimal reaction mixture =100%)): 96%
DNase activity (%) ([4]; -Ca2+ (deleted from optimal reaction mixture =100%)): 1%
DNase activity (%) ([4]; -Mg2+ (deleted from optimal reaction mixture =100%)): 16%
DNase activity (%) ([4]; -PMSF (deleted from optimal reaction mixture =100%)): 94%
DNA cleavage mode [5]: 3'-OH/5'-P termini and 3'--OH, 5'-P end forming type
